Measurements from patent US20160106711A1, “3-3-Di-Substituted-Oxindoles as Inhibitors of Translation Initiation” (President and Fellows of Harvard College, priority 2012, published 2016).

These molecules were tested on eIF2•GTP•Met-tRNAi ternary complex (assay: Ternary complex assay (ATF-4 assay), dual luciferase firefly/renilla ratio). Details: Mus musculus, 80 uM, read-out: ATF-4 Xmax.
Assay type: cell-based, mouse
Excerpt: For assay development, a bi-directional plasmid was designed in which a common promoter/enhancer complex drives the transcription of firefly luciferase (F-luc) ORF fused to the 5′ untranslated region (UTR) of ATF-4, and of the renilla luciferase (R-luc) ORF fused to a 90-nucleotide 5′ UTR derived from the plasmid (FIG. 6A). Because the tetracycline-regulated transactivator ((tTA), required for driving transcription from this vector) is not normally expressed in the mammalian cells, stable KLN cancer cells were constructed that expressed tTA (KLN-tTA).
The KLN-tTA colonies that drove expression of reporter genes from pBISA-DL plasmid were selected by transient transfection and dual luciferase assay. One of these KLN-tTA cell lines was transfected with the pBISA-DL^(ATF-4) expression vector, stable colonies were selected by dual luciferase assay and expanded.
Plasmids and Ternary Complex Assay
(ATF-4 Assay). Briefly, bi-directional mammalian expression vector pBI (Clontech, CA) was modified to expand the multiple cloning sites (MCSs) and designated thereafter as pBISA. This vector contains seven copies of the tetracycline-regulated transactivator response element (TRE), which together act as core promoter/enhancer. The TRE is flanked on both sides by minimal human cytomegalovirus (CMV) minimal promoters allowing bi-directional transcription and two MCSs. Firefly and renilla luciferases were subcloned into MCS-I and MCS-II, respectively. This plasmid, designated pBISA-DL, transcribes two mRNAs that contain the 90 nucleotide plasmid derived 5′UTR (same sequence in both mRNAs), and the ORF encoding either firefly or renilla luciferase followed by a polyadenylation sequence as described in Ziegeler, G.; Ming, J.; Koseki, J. C.; Sevinc, S.; Chen, T.; Ergun, S.; Qin, X.; Aktas, B. H. J. Biol. Chem. 2010, 285, 15408 hereby incorporated by reference. This plasmid was further modified by inserting the 5′UTR of ATF-4 into MCS-I in front of the firefly luciferase mRNA. Transcription from this direction generates an mRNA that contains the firefly luciferase ORF preceded by a 5′UTR composed of 90 nucleotides derived from the plasmid and 267 nucleotides derived from the 5′UTR of ATF-4 mRNA. Transcription from the other direction generates an mRNA that contains the renilla luciferase ORF proceeded only by the 90-nucleotide plasmid-derived sequence in the 5′UTR. This expression plasmid is called pBISA-DL(ATF-4). In the dual luciferase assay, cells expressing firefly and renilla luciferases were lysed and the extracts assayed with a Dual-Glo Luciferase assay kit, per manufacturer's instruction (Promega Inc., Madison, Wis.). The data calculations were carried out as the ratio of firefly to renilla luciferase signal as described in Chen, T.; Ozel, D.; Qiao, Y.; Harbinski, F.; Chen, L.; Denoyelle, S.; He, X.; Zvereva, N.; Supko, J. G.; Chorev, M.; Halperin, J. A.; Aktas, B. H. Nat. Chem. Biol. 2011, 7, 610 hereby incorporated by reference.

SMILES | maximal fold induction at 80 µM
COc1ccc(OC)c(C2(c3cc(O)ccc3OC)C(=O)Nc3ccccc32)c1 (stereo not shown) [HY055] | 1.2 ± 0.6
CC(=O)OCCOc1ccc(C(C)(C)C)cc1C1(c2cc(C(C)(C)C)ccc2O)C(=O)Nc2ccccc21 (stereo not shown) [HY084] | 11.4 ± 0.4

Same assay, conditions: Mus musculus, at 40 uM, read-out: ATF-4 Xmax @ 40 μM

SMILES | maximal fold induction at 40 µM
O=C1Nc2ccccc2C1(c1ccccc1)c1cc(C2CCCC2)ccc1O (stereo not shown) [Compound 1289, reference compound] | 2.87 ± 2.19
Cc1cc(C2(c3cc(C(C)(C)C)ccc3O)C(=O)Nc3ccccc32)ccc1Cl (stereo not shown) [HY017, 3-(5-tert-Butyl-2-Hydroxyphenyl)-3-(4-Chloro-3-Methylphenyl)Indolin-2-One] | 0.65 ± 0.7
CC(C)Oc1ccc(O)c(C2(c3ccccc3)C(=O)Nc3ccccc32)c1 (stereo not shown) [HY032, 3-(2-Hydroxy-5-Isopropoxyphenyl)-3-Phenylindolin-2-One] | 4.65 ± 0.58
CC(C)(C)c1ccc(O)c(C2(c3cc(C(C)(C)C)ccc3O)C(=O)Nc3c2ccc(F)c3F)c1 [HY036, 3,3-Bis(5-tert-Butyl-2-Hydroxyphenyl)-6,7-Difluoroindolin-2-One] | 4.45 ± 1.07
CC(C)(C)c1ccc(O)c(C2(c3cc(C(C)(C)C)ccc3OCCN3CCOCC3)C(=O)Nc3ccccc32)c1 (stereo not shown) [HY063] | 4.4 ± 1.5
CC(C)(C)c1ccc(C2(c3cc(C(C)(C)C)ccc3O)C(=O)Nc3ccccc32)c(OCCO)c1 (stereo not shown) [HY069] | 10.7 ± 1
CC(C)(C)c1ccc(O)c(C2(c3cc(C(C)(C)C)ccc3OCCBr)C(=O)Nc3ccccc32)c1 (stereo not shown) [HY083] | 12.9 ± 2.11
CC(=O)OCCOc1ccc(C(C)(C)C)cc1C1(c2cc(C(C)(C)C)ccc2O)C(=O)Nc2ccccc21 (stereo not shown) [HY084] | 8.59 ± 1.67

These molecules were tested on KLN (assay: Cell growth assay (sulforhodamine B), KLN cells). Details: Mus musculus, 120 h, 5 days, SRB.
Assay type: cell-based, mouse
Description: […] Plates were then incubated with 0.4% SRB in 1% acetic acid for 1 h, washed with 1% acetic acid to remove the unbound dye, and air-dried. The bound dye was solubilized by addition of 10 mM Tris (pH 10), and the absorbance was determined in a Titertek Multiscan plate reader at 490 nm. The data calculations were carried out as described (the values for mean±SD of data from replicate wells are calculated): data are expressed in terms of % T/C [(OD of treated cells/OD of control cells)×100], as a measure of cell viability and survival in the presence of test materials. Calculations are also made for the concentration of test agents giving a T/C value of 50%, or 50% growth inhibition (IC50). With the SRB assay, a measure is made of the cell population density at time 0 (the time at which drugs are added) from two extra reference plates of inoculated cells fixed with TCA just prior to drug addition to the test plates. Thus, we have three measurements: control optical density (C), test optical density (T), and optical density at time zero (T0). The calculation is 100×[(T−T0)/(C−T0)]. If T is less than T0, cell killing has occurred and can be calculated from 100×[(T−T0)/T0]. Thus, for each drug-cell line combination, a dose-response curve is generated and three levels of effect are calculated.

SMILES | IC50 [µM]
CCCCc1ccc(O)c(C2(c3ccccc3)C(=O)Nc3ccccc32)c1 (stereo not shown) [Compound 1287, reference compound] | > 20
O=C1Nc2ccccc2C1(c1ccccc1)c1cc(C2CCCC2)ccc1O (stereo not shown) [Compound 1289, reference compound] | 16 ± 2.2
Cc1cc(C2(c3cc(C(C)(C)C)ccc3O)C(=O)Nc3ccccc32)ccc1Cl (stereo not shown) [HY017, 3-(5-tert-Butyl-2-Hydroxyphenyl)-3-(4-Chloro-3-Methylphenyl)Indolin-2-One] | 4.3 ± 1
CC(C)Oc1ccc(O)c(C2(c3ccccc3)C(=O)Nc3ccccc32)c1 (stereo not shown) [HY032, 3-(2-Hydroxy-5-Isopropoxyphenyl)-3-Phenylindolin-2-One] | 16.1 ± 2.2
CC(C)(C)c1ccc(O)c(C2(c3cc(C(C)(C)C)ccc3O)C(=O)Nc3c2ccc(F)c3F)c1 [HY036, 3,3-Bis(5-tert-Butyl-2-Hydroxyphenyl)-6,7-Difluoroindolin-2-One] | 11.2 ± 3.2
COc1ccc(OC)c(C2(c3cc(O)ccc3OC)C(=O)Nc3ccccc32)c1 (stereo not shown) [HY055] | 15.6 ± 0.4
CC(C)(C)c1ccc(O)c(C2(c3cc(C(C)(C)C)ccc3OCCN3CCOCC3)C(=O)Nc3ccccc32)c1 (stereo not shown) [HY063] | 7.4 ± 2.5
CC(C)(C)c1ccc(C2(c3cc(C(C)(C)C)ccc3O)C(=O)Nc3ccccc32)c(OCCO)c1 (stereo not shown) [HY069] | > 20
CC(C)(C)c1ccc(O)c(C2(c3cc(C(C)(C)C)ccc3OCCBr)C(=O)Nc3ccccc32)c1 (stereo not shown) [HY083] | 11.4 ± 2.2
CC(=O)OCCOc1ccc(C(C)(C)C)cc1C1(c2cc(C(C)(C)C)ccc2O)C(=O)Nc2ccccc21 (stereo not shown) [HY084] | 11.4 ± 0.2
CC(C)(C)c1ccc(OCCOC2OC(CO)C(O)C(O)C2O)c(C2(c3cc(C(C)(C)C)ccc3OCCOC3OC(CO)C(O)C(O)C3O)C(=O)Nc3ccccc32)c1 (stereo not shown) [HY190] | > 20
CC(C)(C)c1ccc(OCCN2CCOCC2)c(C2(c3cc(C(C)(C)C)ccc3OCCN3CCOCC3)C(=O)Nc3ccccc32)c1 [SD167] | > 20

These molecules were tested on CRL-2813 (assay: Cell growth assay (sulforhodamine B), CRL-2813 cells). Details: Homo sapiens, CRL2813, 120 h, 5 days, SRB.
Assay type: cell-based, human
Description: (§1) Adherent mouse (KLN) and human solid tumor cells (CRL-2351, and CRL-2813) were plated in 96-well plates and maintained for 5 days in the presence of 0.54 to 6 μM of individual compound, and cell proliferation was measured by the sulforhodamine B (SRB) assay as described in ref. 11: briefly, cells were fixed in 10% cold trichloroacetic acid at 4° C. for 1 h, extensively washed with double-distilled H2O and air-dried. Plates were then incubated with 0.4% SRB in 1% acetic acid for 1 h, washed with 1% acetic acid to remove the unbound dye, and air-dried. The bound dye was solubilized by addition of 10 mM Tris (pH 10), and the absorbance was determined in a Titertek Multiscan plate reader at 490 nm. The data calculations were carried out as described (the values for mean±SD of data from replicate wells are calculated): data are expressed in terms of % T/C [(OD of treated cells/OD of control cells)×100], as a measure of cell viability and survival in the presence of test materials. Calculations are also made for the concentration of test agents giving a T/C value of 50%, or 50% growth inhibition (IC50). With the SRB assay, a measure is made of the cell population density at time 0 (the time at which drugs are added) from two extra reference plates of inoculated cells fixed with TCA just prior to drug addition to the test plates. Thus, we have three measurements: control optical density (C), test optical density (T), and optical density at time zero (T0). The calculation is 100×[(T−T0)/(C−T0)]. If T is less than T0, cell killing has occurred and can be calculated from 100×[(T−T0)/T0]. Thus, for each drug-cell line combination, a dose-response curve is generated and three levels of effect are calculated.

SMILES | IC50 [µM]
CCCCc1ccc(O)c(C2(c3ccccc3)C(=O)Nc3ccccc32)c1 (stereo not shown) [Compound 1287, reference compound] | 2.8 ± 0.3
O=C1Nc2ccccc2C1(c1ccccc1)c1cc(C2CCCC2)ccc1O (stereo not shown) [Compound 1289, reference compound] | 2.5 ± 0.3
Cc1cc(C2(c3cc(C(C)(C)C)ccc3O)C(=O)Nc3ccccc32)ccc1Cl (stereo not shown) [HY017, 3-(5-tert-Butyl-2-Hydroxyphenyl)-3-(4-Chloro-3-Methylphenyl)Indolin-2-One] | 2.9 ± 0.1
CC(C)Oc1ccc(O)c(C2(c3ccccc3)C(=O)Nc3ccccc32)c1 (stereo not shown) [HY032, 3-(2-Hydroxy-5-Isopropoxyphenyl)-3-Phenylindolin-2-One] | 10.5 ± 1.9
CC(C)(C)c1ccc(O)c(C2(c3cc(C(C)(C)C)ccc3O)C(=O)Nc3c2ccc(F)c3F)c1 [HY036, 3,3-Bis(5-tert-Butyl-2-Hydroxyphenyl)-6,7-Difluoroindolin-2-One] | 2.7 ± 0.1
COc1ccc(OC)c(C2(c3cc(O)ccc3OC)C(=O)Nc3ccccc32)c1 (stereo not shown) [HY055] | 9.7 ± 2
CC(C)(C)c1ccc(O)c(C2(c3cc(C(C)(C)C)ccc3OCCN3CCOCC3)C(=O)Nc3ccccc32)c1 (stereo not shown) [HY063] | 3.2 ± 0.2
CC(C)(C)c1ccc(C2(c3cc(C(C)(C)C)ccc3O)C(=O)Nc3ccccc32)c(OCCO)c1 (stereo not shown) [HY069] | 2.9 ± 0.3
CC(C)(C)c1ccc(O)c(C2(c3cc(C(C)(C)C)ccc3OCCBr)C(=O)Nc3ccccc32)c1 (stereo not shown) [HY083] | 1 ± 0.9
CC(=O)OCCOc1ccc(C(C)(C)C)cc1C1(c2cc(C(C)(C)C)ccc2O)C(=O)Nc2ccccc21 (stereo not shown) [HY084] | 1.6 ± 0.4
CC(C)(C)c1ccc(OCCOC2OC(CO)C(O)C(O)C2O)c(C2(c3cc(C(C)(C)C)ccc3OCCOC3OC(CO)C(O)C(O)C3O)C(=O)Nc3ccccc32)c1 (stereo not shown) [HY190] | > 20
CC(C)(C)c1ccc(OCCN2CCOCC2)c(C2(c3cc(C(C)(C)C)ccc3OCCN3CCOCC3)C(=O)Nc3ccccc32)c1 [SD167] | 2.4 ± 0.1

The molecules below were run on CRL-2351 (assay: Cell growth assay (sulforhodamine B), CRL-2351 cells). Details: Homo sapiens, 120 h, 5 days, SRB.
Assay type: cell-based, human
Description: as §1

SMILES | IC50 [µM]
CCCCc1ccc(O)c(C2(c3ccccc3)C(=O)Nc3ccccc32)c1 (stereo not shown) [Compound 1287, reference compound] | 3.5 ± 0.1
O=C1Nc2ccccc2C1(c1ccccc1)c1cc(C2CCCC2)ccc1O (stereo not shown) [Compound 1289, reference compound] | 3.2 ± 1
Cc1cc(C2(c3cc(C(C)(C)C)ccc3O)C(=O)Nc3ccccc32)ccc1Cl (stereo not shown) [HY017, 3-(5-tert-Butyl-2-Hydroxyphenyl)-3-(4-Chloro-3-Methylphenyl)Indolin-2-One] | 2.9 ± 0.1
CC(C)Oc1ccc(O)c(C2(c3ccccc3)C(=O)Nc3ccccc32)c1 (stereo not shown) [HY032, 3-(2-Hydroxy-5-Isopropoxyphenyl)-3-Phenylindolin-2-One] | 4.8 ± 1.6
CC(C)(C)c1ccc(O)c(C2(c3cc(C(C)(C)C)ccc3O)C(=O)Nc3c2ccc(F)c3F)c1 [HY036, 3,3-Bis(5-tert-Butyl-2-Hydroxyphenyl)-6,7-Difluoroindolin-2-One] | 2.4 ± 0.6
COc1ccc(OC)c(C2(c3cc(O)ccc3OC)C(=O)Nc3ccccc32)c1 (stereo not shown) [HY055] | 9
CC(C)(C)c1ccc(O)c(C2(c3cc(C(C)(C)C)ccc3OCCN3CCOCC3)C(=O)Nc3ccccc32)c1 (stereo not shown) [HY063] | 1.6 ± 0.2
CC(C)(C)c1ccc(C2(c3cc(C(C)(C)C)ccc3O)C(=O)Nc3ccccc32)c(OCCO)c1 (stereo not shown) [HY069] | 8.8 ± 0.9
CC(C)(C)c1ccc(O)c(C2(c3cc(C(C)(C)C)ccc3OCCBr)C(=O)Nc3ccccc32)c1 (stereo not shown) [HY083] | 2.4 ± 1.6
CC(=O)OCCOc1ccc(C(C)(C)C)cc1C1(c2cc(C(C)(C)C)ccc2O)C(=O)Nc2ccccc21 (stereo not shown) [HY084] | 2.7 ± 0.2
CC(C)(C)c1ccc(OCCOC2OC(CO)C(O)C(O)C2O)c(C2(c3cc(C(C)(C)C)ccc3OCCOC3OC(CO)C(O)C(O)C3O)C(=O)Nc3ccccc32)c1 (stereo not shown) [HY190] | > 20
CC(C)(C)c1ccc(OCCN2CCOCC2)c(C2(c3cc(C(C)(C)C)ccc3OCCN3CCOCC3)C(=O)Nc3ccccc32)c1 [SD167] | 1.68 ± 1.26
